Measurements from US8440646B1 (priority 2006, dated 2013).
Values after ≈ are worked out from the molar mass of the structure shown. Where two headings read alike, the source gives them in different places.

Experiments:
S. aureus RN450 = experiment: microbe, parasite or virus in culture; type: cell-based; conditions: Staphylococcus aureus
S. aureus RN4250 = experiment: microbe, parasite or virus in culture; type: cell-based; conditions: Staphylococcus aureus, RN4250
[1] = test system: Protein synthesis of S. aureus RN450; experiment: microbe, parasite or virus in culture; type: cell-based; conditions: Staphylococcus aureus
S. aureus MRSA5 = experiment: microbe, parasite or virus in culture; type: cell-based; conditions: Staphylococcus aureus
[2] = test system: Peptidoglycan synthesis of S. aureus RN450; experiment: microbe, parasite or virus in culture; type: cell-based
S. pneumoniae 700905 [3] = experiment: microbe, parasite or virus in culture; type: cell-based; conditions: Streptococcus pneumoniae
E. faecalis 29212 = experiment: microbe, parasite or virus in culture; type: cell-based; conditions: Enterococcus faecalis
E. faecium 494 = experiment: microbe, parasite or virus in culture; type: cell-based; conditions: Enterococcus faecium
S. pneumoniae 700905 [4] = test system: S. pneumoniae 700905; design: species or system mice; conditions: mouse, in vivo
S. pneumoniae 157E [5] = test system: S. pneumoniae 157E; design: species or system mice; conditions: mouse, in vivo
S. pneumoniae 157E [6] = experiment: animal or person; type: in vivo, mice; conditions: for responders at 5 mg/kg: sc
[7] = Streptococcus pneumoniae, 157E, in Mus musculus, po, 48 h, read-out: % survival
[8] = Streptococcus pneumoniae, 157E, in Mus musculus, 48 h, read-out: % survival

| SMILES | MIC (S. aureus RN450) | MIC (S. aureus RN4250) | MIC (S. aureus MRSA5) | MIC (S. pneumoniae 700905 [3]) | MIC (E. faecalis 29212) | MIC (E. faecium 494) | also measured |
| --- | --- | --- | --- | --- | --- | --- | --- |
| CN(C)Cc1ccc(-c2ccc(O)c3c2C[C@H]2C[C@H]4[C@H](N(C)C)C(O)=C(C(N)=O)C(=O)[C@@]4(O)C(O)=C2C3=O)cc1 [Compound V] | 0.06 µg/mL (≈ 0.11 µM) | 0.06 µg/mL (≈ 0.11 µM) |  |  |  |  |  |
| CN(C)[C@@H]1C(O)=C(C(N)=O)C(=O)[C@@]2(O)C(O)=C3C(=O)c4c(O)ccc(CN5CCC(F)CC5)c4C[C@H]3C[C@@H]12 [U] | 0.06 µg/mL (≈ 0.113 µM) | 0.06 µg/mL (≈ 0.113 µM) |  |  |  |  |  |
| CO/N=C/c1cc(-c2ccc(O)c3c2C[C@H]2C[C@H]4[C@H](N(C)C)C(O)=C(C(N)=O)C(=O)[C@@]4(O)C(O)=C2C3=O)ccc1OC [A] | 0.25 µg/mL (≈ 0.433 µM) |  | 1 µg/mL (≈ 1.73 µM) | 0.25 µg/mL (≈ 0.433 µM) | 1 µg/mL (≈ 1.73 µM) | 1 µg/mL (≈ 1.73 µM) | IC50 ([1]; read-out: Protein synthesis IC50): 1.9 µg/mL (≈ 3.29 µM); IC90 ([1]; read-out: Protein synthesis IC90): 5 µg/mL (≈ 8.66 µM); effect on peptidoglycan biosynthesis in words [2]: affect peptidoglycan biosynthesis; IC50 ([2]; Staphylococcus aureus, read-out: Peptidoglycan synthesis IC50): 2.1 µg/mL (≈ 3.64 µM); IC90 ([2]; Staphylococcus aureus, read-out: Peptidoglycan synthesis IC90): 3.8 µg/mL (≈ 6.58 µM) |
| CN(CCC(F)(F)F)Cc1cc(N(C)C)c2c(c1O)C(=O)C1=C(O)[C@]3(O)C(=O)C(C(N)=O)=C(O)[C@@H](N(C)C)[C@@H]3C[C@@H]1C2 [L] |  |  | 0.5 µg/mL (≈ 0.838 µM) | 0.75 µg/mL (≈ 1.26 µM) | 1 µg/mL (≈ 1.68 µM) | 1 µg/mL (≈ 1.68 µM) |  |
| C=CCN(C)Cc1cncc(-c2ccc(O)c3c2C[C@H]2C[C@H]4[C@@H](N(C)C)C(O)=C(C(N)=O)C(=O)[C@@]4(O)C(O)=C2C3=O)c1 [T] | 0.06 µg/mL (≈ 0.104 µM) | 0.06 µg/mL (≈ 0.104 µM) |  |  |  |  |  |
| COc1ccc(CN(C)C)c(-c2ccc(O)c3c2C[C@H]2C[C@H]4[C@H](N(C)C)C(O)=C(C(N)=O)C(=O)[C@@]4(O)C(O)=C2C3=O)c1 [X] | 0.06 µg/mL (≈ 0.104 µM) | 0.06 µg/mL (≈ 0.104 µM) |  |  |  |  |  |
| C[C@H]1c2ccc(CN3CCC(C(F)(F)F)CC3)c(O)c2C(=O)C2=C(O)[C@]3(O)C(=O)C(C(N)=O)=C(O)[C@@H](N(C)C)C3[C@@H](O)C21 (stereo partly drawn) [AN] |  |  |  |  |  |  | PD50 (S. pneumoniae 700905 [4]; iv): 1.4 mg/kg; PD50 (S. pneumoniae 700905 [4]; po): 8.4 mg/kg; PD50 (S. pneumoniae 157E [5]; iv): 0.54 mg/kg; PD50 (S. pneumoniae 157E [5]; po): 2.3 mg/kg |
| CCCCN(CCCC)Cc1cc(N(C)C)c2c(c1O)C(=O)C1=C(O)[C@]3(O)C(=O)C(C(N)=O)=C(O)[C@@H](N(C)C)[C@@H]3C[C@@H]1C2 [AH] |  |  | 1 µg/mL (≈ 1.67 µM) | 0.06 µg/mL (≈ 0.1 µM) | 0.25 µg/mL (≈ 0.418 µM) | 0.25 µg/mL (≈ 0.418 µM) |  |
| CC(CF)N(C)Cc1cc(N(C)C)c2c(c1O)C(=O)C1=C(O)[C@]3(O)C(=O)C(C(N)=O)=C(O)[C@@H](N(C)C)[C@@H]3C[C@@H]1C2 (stereo partly drawn) [Compound C] |  |  | 1 µg/mL (≈ 1.78 µM) | 0.25 µg/mL (≈ 0.446 µM) | 0.5 µg/mL (≈ 0.892 µM) | 0.25 µg/mL (≈ 0.446 µM) | responders at 10 mg/kg (S. pneumoniae 157E [6]; [7]): 60%; responders at 5 mg/kg (S. pneumoniae 157E [6]; [8]): 100%; efficacy in words (S. pneumoniae 157E [6]; mouse, in vivo): efficacious |
| COCCNCc1ccc(-c2ccc(O)c3c2C[C@H]2C[C@H]4[C@H](N(C)C)C(O)=C(C(N)=O)C(=O)[C@@]4(O)C(O)=C2C3=O)cc1 [Y] | 0.06 µg/mL (≈ 0.104 µM) | 0.06 µg/mL (≈ 0.104 µM) |  |  |  |  |  |
| CN(Cc1ccccc1F)Cc1cc(N(C)C)c2c(c1O)C(=O)C1=C(O)[C@]3(O)C(=O)C(C(N)=O)=C(O)[C@@H](N(C)C)[C@@H]3C[C@@H]1C2 [K] |  |  | 0.5 µg/mL (≈ 0.821 µM) | 0.25 µg/mL (≈ 0.411 µM) | 1 µg/mL (≈ 1.64 µM) | 1 µg/mL (≈ 1.64 µM) |  |
| CN(C)[C@@H]1C(O)=C(C(N)=O)C(=O)[C@@]2(O)C(O)=C3C(=O)c4c(O)ccc(B5OC(C)(C)C(C)(C)O5)c4C[C@H]3C[C@@H]12 [F] |  |  | 0.5 µg/mL (≈ 0.925 µM) | 0.25 µg/mL (≈ 0.463 µM) | 0.5 µg/mL (≈ 0.925 µM) | 1 µg/mL (≈ 1.85 µM) | responders at 50 mg/kg (S. pneumoniae 157E [6]; [7]): 100%; responders at 5 mg/kg (S. pneumoniae 157E [6]; [8]): 100% |
| COC(=O)c1ccc(CNCc2cc(N(C)C)c3c(c2O)C(=O)C2=C(O)[C@]4(O)C(=O)C(C(N)=O)=C(O)[C@H](N(C)C)[C@@H]4C[C@@H]2C3)cc1 [D] |  |  | 1 µg/mL (≈ 1.58 µM) | 0.25 µg/mL (≈ 0.394 µM) | 0.25 µg/mL (≈ 0.394 µM) | 1 µg/mL (≈ 1.58 µM) | responders at 10 mg/kg (S. pneumoniae 157E [6]; [7]): 0%; responders at 5 mg/kg (S. pneumoniae 157E [6]; [8]): 0% |
| COc1ccc(-c2ccc(O)c3c2C[C@H]2C[C@H]4[C@H](N(C)C)C(O)=C(C(N)=O)C(=O)[C@@]4(O)C(O)=C2C3=O)cc1CN(C)C(C)C [Compound M] | 0.06 µg/mL (≈ 0.0991 µM) | 0.06 µg/mL (≈ 0.0991 µM) |  |  |  |  |  |
